# Source: patent publication US20250312336A1, “Compositions And Methods For Treating Cancer With Calcium Channel Inhibitors” (Institute for Cancer Research d/b/a The Research Institute …, priority 2024, published 2025)
# “Also recorded” adds a separate entry of the source.
# Columns and labels:
# OT-1 CTLs = assay: Trogocytosis assay of DiD-labeled CAFs co-cultured with OT-1 CTLs; format: cell-based, mouse
# Procedure: For trogocytosis between OT-1 and CAF cells, T cells were isolated from splenocytes of OTI mice (strain 021880, The Jackson Laboratory) and stimulated with OVA257-264 (1 μg/ml) for 24 hours as described.
# Cholesterol abundance in cell membranes was determined with Cholesterol Detection Assay Kit (Cayman, cat #10009779). Dissociated cells were fixed with fixative solution for 10 minutes, washed and labeled with Filipin III as per the manufacturer's instructions. Labeling with Filipin III was done by incubating in the dark for 30 minutes. After two washes for 5 minutes each, labeling was analyzed by flow cytometry (excitation: 340-380, emission: 385-470). The IFN-γ, Granzyme B and Foxp3 were detected using Foxp3/Transcription Factor Staining Buffer (00-5523-00, Thermo Fisher Scientific). Cells were stained for cell surface markers at 4° C. for 30 min followed by fixation and permeabilization buffer for 30 mins and two washes with permeabilization buffer and incubation with the indicated antibodies for 30 mins, washed with PBS twice followed by flow cytometry analysis.
# ANO6 [1] = target: T1, ANO6 (Homo sapiens, UniProt Q4KMQ2); assay: PtdSer externalization (annexin XII) in CAFs co-cultured with DsRed-tagged Panc-1 cells; format: cell-based; set-up: this increase was observed only in control CAFs (ANO6-proficient) engaged in physical contacts with DsRed-tagged Panc-1 cells; endogenous in cells; host or cells: human CAFs in co-culture with DsRed-tagged Panc-1 cells; conditions: BTP2 10 μM; clofazimine 1 μM; niclosamide
# T1 sequence (Q4KMQ2 1-910): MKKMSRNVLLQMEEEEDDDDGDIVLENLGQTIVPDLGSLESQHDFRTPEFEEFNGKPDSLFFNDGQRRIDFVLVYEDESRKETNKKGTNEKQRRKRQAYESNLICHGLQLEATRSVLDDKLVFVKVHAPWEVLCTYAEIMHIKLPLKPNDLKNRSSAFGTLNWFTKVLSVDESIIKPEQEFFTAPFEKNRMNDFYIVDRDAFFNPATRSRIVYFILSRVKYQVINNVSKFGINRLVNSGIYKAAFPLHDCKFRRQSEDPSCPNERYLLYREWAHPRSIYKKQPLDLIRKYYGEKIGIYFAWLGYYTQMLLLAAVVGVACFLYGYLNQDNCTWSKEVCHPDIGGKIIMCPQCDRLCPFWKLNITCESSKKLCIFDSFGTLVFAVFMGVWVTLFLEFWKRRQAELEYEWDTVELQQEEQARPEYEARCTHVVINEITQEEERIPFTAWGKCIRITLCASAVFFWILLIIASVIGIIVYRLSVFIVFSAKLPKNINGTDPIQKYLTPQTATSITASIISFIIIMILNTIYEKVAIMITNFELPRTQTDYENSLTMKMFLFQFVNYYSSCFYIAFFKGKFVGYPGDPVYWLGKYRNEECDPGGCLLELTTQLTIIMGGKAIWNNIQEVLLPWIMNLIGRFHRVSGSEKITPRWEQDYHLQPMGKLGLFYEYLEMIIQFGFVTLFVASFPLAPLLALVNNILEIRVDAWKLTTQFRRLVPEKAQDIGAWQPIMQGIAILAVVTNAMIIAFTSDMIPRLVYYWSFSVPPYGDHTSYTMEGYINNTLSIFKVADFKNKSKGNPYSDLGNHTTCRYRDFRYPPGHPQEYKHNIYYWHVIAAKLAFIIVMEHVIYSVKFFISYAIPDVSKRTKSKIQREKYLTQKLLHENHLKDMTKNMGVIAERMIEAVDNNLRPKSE
# Procedure: (§1) CAFs were seeded in 24-well glass bottom plates (cat. #81156, Ibidi, Fitchburg, WI) at a density of 20,000 cells per well. Cells were then treated with niclosamide (1 μM) for 2 h. After one wash with FBS-free media at RT, cells were incubated with 250 μl of 1:100 annexin XII and 1:200 propidium iodide (pSIVA Abcam #ab129817), with or without 10 μM ionomycin. Cells were then incubated (5 min 37C) and imaged by fluorescence microscopy using a Nikon A1 camera (Nikon) linked to a Nikon Eclipse Ti2-E Inverted Microscope Imaging System (Nikon) for each channel. Fifteen images per well were acquired.
# [2] = tested on: store-operated calcium entry (SOCE) in CAFs; assay: Cytosolic calcium (Fluo4) in CAFs co-cultured with Panc-1 cells; format: cell-based, human; conditions: indicated concentrations of inhibitors, Fluo4 measured 5 minutes after addition
# Procedure: CAF (5×10^3) and PDAC ([…]) cells were incubated (separately or in co-culture) on coverslips for 12 hrs before loading with the calcium indicator Fluo4-AM (5 μM; Invitrogen, Eugene, OR) in DMEM supplemented with HEPES and 0.5% FBS and incubated at 37° C., 5% CO2 for 30 min. Cells were washed in DMEM before incubating for an additional 30 minutes at 37° C., 5% CO2 to permit de-esterification of the dye. Fluorescence emissions at 506 nm in response to excitation at 494 nm were monitored for 60 cycles at a frequency of 0.33 Hz using a Leica SP8 laser scanning microscope (Buffalo Grove, IL) at 37° C. with 5% CO2. Intracellular Ca2+measurements are shown as absolute fluorescence obtained from 35-45 cells obtained using Leica LASX software. Averaged results±SEM from at least three independent experiments were analyzed by one-way ANOVA with GraphPad Prism. […]
# CAF (5×10^3) cells were incubated on coverslips for 12 hrs before loading with the calcium indicator Fura2-AM (2 μM; Invitrogen, Eugene, OR) in cation-safe solution (107 mM NaCl, 7.2 mM KCl, 1.2 mM MgCl2, 11.5 mM glucose, 20 mM Hepes-NaOH, 1 mM CaCl2, pH 7.2) for 30 min at 24° C. as previously described. Cells were washed, and dye was allowed to de-esterify for a minimum of 30 min at 24° C. Cells were treated with Vehicle control, […] CM462, or 1 μM BTP2 along with 2 μM Thapsigargin for 10 minutes. After Ca2+ levels returned to their baseline, 1 mM Ca2+ was added. Ca2+ measurements were made using a Leica DMI 6000B fluorescence microscope controlled by Slidebook Software (Intelligent Imaging Innovations; Denver, CO). Fluorescence emission at 505 nm was monitored while alternating between 340 and 380 nm excitation wavelengths at a frequency of 0.67 Hz; intracellular Ca2+ measurements are shown as 340/380 nm ratios obtained from groups (20-25) of single cells.
# PDAC cells = assay: Trogocytosis of CAF membranes by PDAC cells with cytoskeleton inhibitors; format: cell-based; conditions: cytoskeleton (actin polymerization) inhibitors
# Procedure: (§2) To label cellular membranes, pairs of lipophilic fluorescent dyes were used according to the manufacturer's instructions in the following combinations: 1) adherent CAFs were stained with 1 μM PKH67 (Sigma-Aldrich), Panc-1 were stained in suspension with 10 μM CellTracker™ orange CMCMR (Thermo Fisher Scientific); 2) CAFs labeled with 0.5 μM BODIPY-cholesterol (Topfluor Cholesterol, #DO-016545, Avanti Polar Lipids) dissolved in 0.1 mM methyl-beta-cyclodextrin (#C4555, Sigma) with 2 μM cholesterol (#C8667, Sigma-Aldrich) in MEM media at 37° C. for 30 min in suspension; murine or human (Panc-1) PDAC cells were stained in suspension with CPD670 (#65-0840-85, Thermo Fisher Scientific). After labeling, CAFs were co-incubated for the indicated time intervals with PDAC cells in 12-well culture plates at ratio of 2:1 in 0.5% DMEM media. Co-cultures of CAFs and PDAC cells for 3 minutes on ice minutes were used as negative controls. In experiments assessing the effect of extracellular calcium on trogocytosis, cells were co-cultured in Phosphate Buffered Saline (PBS) containing calcium and magnesium (D8662, Sigma-Aldrich) or in PBS without calcium and magnesium (D8537, Sigma-Aldrich). After co-cultures, cells were collected and pelleted by centrifugation (5 min, 1500 rpm), resuspended in 10% formalin (Sigma) for 10 min at RT, washed and re-suspended in PBS/1% BSA. Trogocytosis was measured as the acquisition of CAF-specific fluorescence in PDAC cells by flow cytometry on MACSQuant® VYB Flow Cytometer (Miltenyi Biotec) or FACScan analyzer (BD Biosciences). Analysis of dual staining was done using FlowJo software (10.8.1, BD Biosciences). Live cells were gated based on FSC/SSC parameters, then single cells were gated based on SSC-A/SSC-H.
# Panc-1 cells = assay: Trogocytosis of PKH67-labeled CAF membranes by Panc-1 cells in co-culture (flow cytometry); format: cell-based, human; conditions: 3 mM EGTA, mean fluorescence intensity normalized to vehicle
# Procedure: as §2, with “After co-cultures, cells were collected and pelleted by centrifugation (5 min, 1500 rpm), resuspended in 10% formalin (Sigma) for 10 min at RT, washed and re-suspended in PBS/1% BSA.” left out, “Analysis of dual staining was done using FlowJo software (10.8.1, BD Biosciences). Live cells were gated based on FSC/SSC parameters, then single cells were gated based on SSC-A/SSC-H.” left out
# ANO6 [3] = target: T1, ANO6; assay: Phosphatidylserine externalization assay in CAFs pulsed with ionomycin (annexin XII); format: cell-based; set-up: endogenous in cells; host or cells: human patient-derived, hTERT-immortalized pancreatic cancer-associated fibroblasts (CAFs)
# Procedure: as §1
# KPCN349 cells = assay: Trogocytosis of BODIPY-cholesterol labeled CAF membranes by KPCN349 cells with PtdSer masking; format: cell-based, murine; conditions: 100 nM Annexin-V or 100 nM Zn-DPA; CAFs pre-treated 2 h, maintained in co-culture
# Procedure: as §2, with “After co-cultures, cells were collected and pelleted by centrifugation (5 min, 1500 rpm), resuspended in 10% formalin (Sigma) for 10 min at RT, washed and re-suspended in PBS/1% BSA.” left out, “Analysis of dual staining was done using FlowJo software (10.8.1, BD Biosciences). Live cells were gated based on FSC/SSC parameters, then single cells were gated based on SSC-A/SSC-H.” left out
compound,measurement,setting,value
C[C@H](CCCC(C)(C)O)[C@H]1CC[C@H]2[C@@H]3CC=C4C[C@@H](O)CC[C@]4(C)[C@H]3CC[C@]12C [25-hydroxycholesterol],Ability of CAFs to inhibit IFN-γ production by the CTLs,OT-1 CTLs; 12 h co-culture with CAFs,reduced the ability of CAFs to inhibit IFN-γ production
same,Transfer of DiD (CAF PM uptake) from CAFs to OT-1 CTLs,"OT-1 CTLs; 12 h co-culture, niclosamide 1 μM, clofazimine 1 μM, anti-TIM3 Ab 4 μg/ml, 25-hydroxycholesterol 4 μM",effectively inhibited the transfer of DiD
Cc1nnsc1C(=O)Nc1ccc(-n2nc(C(F)(F)F)cc2C(F)(F)F)cc1 [BTP2],PtdSer externalization (annexin XII) in CAFs co-cultured with Panc-1 cells,ANO6 [1],suppressed PtdSer externalization; also recorded: blocked
same,Cytosolic Ca2+ elevation (Fluo4 signal) in CAFs engaged in cell-cell contacts with PDAC (Panc-1) cells,[2],effectively blocked cytosolic Ca2+ elevation; also recorded: abrogated Fluo4 fluorescent signal
C=C1[C@@H](C)[C@H]2[C@H](Cc3ccccc3)NC(=O)[C@]23[C@H](OC(C)=O)/C=C/[C@@](C)(O)C(=O)[C@@H](C)C/C=C/[C@H]3[C@@H]1O [Cytochalasin D],Uptake of CAF PMs by PDAC cells,PDAC cells,suppressed uptake of CAF PMs
same,Uptake of CAF PMs by PDAC cells,PDAC cells; listed as cytochalasin D,partially suppressed
O=C(N/N=C/c1ccc(O)c(O)c1)c1cc2ccccc2cc1O [Dynasore],Trogocytosis of CAF membranes / uptake of membrane lipids from human CAFs by Panc-1 cells,Panc-1 cells; listed as dynasore,did not affect the uptake
O=C(O)CN(CCOCCOCCN(CC(=O)O)CC(=O)O)CC(=O)O [EGTA],PtdSer externalization in CAFs with extracellular calcium chelator,"ANO6 [3]; 1 μM ionomycin 5 minutes, 2 mM EGTA, annexin XII",blocked
same,Trogocytosis of CAF membranes / uptake of membrane lipids from human CAFs by Panc-1 cells,Panc-1 cells,inhibited
C/C1=C/C(=O)O[C@@H]2C[C@@H](CC[C@H](C)/C=C\CC1)O[C@@](O)([C@@H]1CSC(=O)N1)C2 [Latrunculin B],Uptake of CAF PMs by PDAC cells,PDAC cells,suppressed uptake of CAF PMs
COc1ccc2c(c1)CC[C@@H]1[C@@H]2CC[C@]2(C)[C@@H](NCCCCCCN3C(=O)C=CC3=O)CC[C@@H]12 [U73122],Cytosolic Ca2+ elevation (Fluo4 signal) in CAFs engaged in cell-cell contacts with PDAC (Panc-1) cells,[2],no effect on Fluo4 signal
C[C@H](CCC(=O)O)C[C@H](C)C[C@H](C)C(=O)/C=C(\O)[C@H](C)C[C@H](C)C/C=C/[C@@H](C)[C@@H](O)[C@@H](C)[C@@H](O)C[C@@H]1CC[C@@](C)([C@H]2CC[C@@](C)([C@@H](C)O)O2)O1 [ionomycin],Cytoplasmic calcium in control CAFs,ANO6 [3]; calcium ionophore treatment,increased cytoplasmic calcium
same,PtdSer externalization to the PM in control CAFs,ANO6 [3]; calcium ionophore treatment,led these cells to externalize PtdSer
Cc1cccc(F)c1C(=O)Nc1cnc(-c2cc3c(cc2Cl)OC(F)(F)O3)cn1 [zegocractin],Cytosolic Ca2+ elevation (Fluo4 signal) in CAFs engaged in cell-cell contacts with PDAC (Panc-1) cells,[2],abrogated Fluo4 fluorescent signal
same,Cytosolic Ca2+ elevation (Fluo4 signal) in CAFs engaged in cell-cell contacts with PDAC (Panc-1) cells,[2]; listed as zegocratin,effectively blocked cytosolic Ca2+ elevation
bis-Zn-dipicolylamine [Zn-DPA],Uptake of BODIPY-labeled CAF membranes by KPCN349 cells,KPCN349 cells,significantly reduced uptake; also recorded: antagonizes trogocytosis
lantrinculin A,Uptake of CAF PMs by PDAC cells,PDAC cells,partially suppressed
